Literature values in patent publication US11666623B2, “Tetramaleimide linkers and use thereof” (NewBio Therapeutics, Inc., priority 2017, dated 2023).

Tested on: human carcinoma lines
Conditions: cited from earlier work

SMILES: COc1cccc2c1C(=O)c1c(O)c3c(c(O)c1C2=O)C[C@@](O)(C(=O)CO)C[C@@H]3O[C@H]1C[C@H](N)[C@H](O)[C@H](C)O1 [doxorubicin, Doxorubicin]
- IC50: 0.1 to 0.2 µM
